Assay results reported in publication PMC9404985, “Development of Dicationic Bisguanidine-Arylfuran Derivatives as Potent Agents against Gram-Negative Bacteria” (Antibiotics, 2022).
pEC50: −log10 of the molar value. Read-outs that look alike come from different tables or passages of the source.

Assays:
[1] = Cytotoxicity assay (PrestoBlue) MCF-7; assay type: cell-based; conditions: human, MCF-7 cells (breast cancer cell line), 24 h incubation
Protocol: (§1) The cytotoxicity levels of all compounds were evaluated against human Michigan Cancer Foundation-7 (MCF-7) and Hepatoma G2 cell line (HepG2) cell lines. MCF-7 is an extensively characterized breast cancer cell line isolated in 1970 [41], while HepG2 cells were derived from a hepatoma in 1975 [42]. Both cell lines grow robustly during in vitro culture and have been widely used for cytotoxicity testing. Cells of hepatic origin, such as HepG2, are of particular relevance for toxicity studies as many drugs accumulate in the liver during metabolic conversion. Cells were grown in Dulbecco’s Modified Eagle Medium supplemented with 10% fetal calf serum and kept in exponential growth, as previously reported. Before the assay, cells were reseeded into 96-well microtiter plates at a density allowing continued exponential growth and let to settle for 24 h. The compounds were added from a stock solution in DMSO, for a final concentration of 0.3% v/v of the solvent in the culture medium. After 24 h of incubation in presence of the compound, cell viability was assayed using PrestoBlue Cell Viability Reagent (resazurin-based solution, ThermoFisher, Waltham, MA, USA) according to the manufacturer’s instructions. […] Each assay contained a DMSO control at the equivalent starting concentration, positive control (uninhibited cell growth) and negative control (cell medium only). Survival was expressed as percentage of the solvent-only control. […] The Selectivity Index (SI) for each compound and bacterial strain was calculated as the ratio between the mean of the EC50 values for the two human cell lines and the EC50 for the bacterial strain in question ((EC50 MCF-7 + EC50 HepG2)/2)/EC50 bacterial strain).

[2] = Cytotoxicity assay (PrestoBlue) HepG2; assay type: cell-based; conditions: human, HepG2 cells (hepatoma cell line), 24 h incubation
Protocol: as §1

[3] = system: K. pneumoniae (CCUG #58547); assay: Antibacterial activity against isolates (Omnilog, Biolog redox dye); assay type: cell-based, Klebsiella pneumoniae; conditions: for pEC50 / EC90: Klebsiella pneumoniae, CCUG58547, ca-MH broth, 24 h, 37 °C; for Selectivity index K. pneumoniae (CCUG #58547): SI = ((EC50 MCF-7 + EC50 HepG2)/2)/EC50 bacterial strain
Protocol: (§2) The antibacterial activities of eight compounds (1, 3, 4, 6, 8, 10, 16, and 17) were tested against 10 different isolates of Gram-negative bacteria from human and other sources, two E. coli (CCUG #67180 and CCUG #17620/ATCC #25922, control strain), two K. pneumoniae (CCUG #58547 and CCUG #225T), two P. aeruginosa (CCUG #17619 and CCUG #59347), two A. baumannii (CCUG #57035 and CCUG #57250), E. cloacae (CCUG #6323T), and E. hormaechei (CCUG #58962) in a 96-well plate format. […] Bacterial mass from the ten isolates grown overnight on horse blood or Mueller–Hinton agar plates was suspended in ca-MH and adjusted to a final inoculum cell density of ~5 × 10^5 CFU/mL. For all assays, Biolog redox dye A diluted 100× from the stock solution was used for measurements of all ten isolates (up to a total volume of 120 µL per well). All plates included one well per isolate with only inoculum and dye but no test compound (i.e., positive control) and one well per isolate with inoculum, dye and DMSO diluted 1667×, corresponding to the DMSO concentration in the wells with the highest concentration of test compound. All measurements were performed using the Omnilog microplate reader (Biolog, Hayward, CA, USA) where the 96-well plates were read at 15 min intervals for a total of 24 h at 37 °C.

[4] = system: P. aeruginosa (CCUG #17619); assay: as above; assay type: cell-based, Pseudomonas aeruginosa; conditions: for pEC50 / EC90: Pseudomonas aeruginosa, CCUG17619, ca-MH broth, 24 h, 37 °C; for Selectivity index P. aeruginosa (CCUG #17619): SI = ((EC50 MCF-7 + EC50 HepG2)/2)/EC50 bacterial strain
Protocol: The antibacterial activities of eight compounds (1, 3, 4, 6, 8, 10, 16, and 17) were tested against 10 different isolates of Gram-negative bacteria from human and other sources, two E. coli (CCUG #67180 and CCUG #17620/ATCC #25922, control strain), two K. pneumoniae (CCUG #58547 and CCUG #225T), two P. aeruginosa (CCUG #17619 and CCUG #59347), two A. baumannii (CCUG #57035 and CCUG #57250), E. cloacae (CCUG #6323T), and E. hormaechei (CCUG #58962) in a 96-well plate format. The compounds to test were 3-fold diluted in six steps in cation-adjusted Mueller-Hinton (ca-MH) broth to final concentrations spanning from 30 to 0.12 µM, i.e., a 1667–416,667 times dilution from the 50 mM stocks. Bacterial mass from the ten isolates grown overnight on horse blood or Mueller–Hinton agar plates was suspended in ca-MH and adjusted to a final inoculum cell density of ~5 × 10^5 CFU/mL. For all assays, Biolog redox dye A diluted 100× from the stock solution was used for measurements of all ten isolates (up to a total volume of 120 µL per well). All plates included one well per isolate with only inoculum and dye but no test compound (i.e., positive control) and one well per isolate with inoculum, dye and DMSO diluted 1667×, corresponding to the DMSO concentration in the wells with the highest concentration of test compound. All measurements were performed using the Omnilog microplate reader (Biolog, Hayward, CA, USA) where the 96-well plates were read at 15 min intervals for a total of 24 h at 37 °C.

[5] = system: P. aeruginosa (CCUG #59347); assay: as above; assay type: cell-based, Pseudomonas aeruginosa; conditions: for pEC50 / EC90: Pseudomonas aeruginosa, CCUG59347, ca-MH broth, 24 h, 37 °C; for Selectivity index P. aeruginosa (CCUG #59347): SI = ((EC50 MCF-7 + EC50 HepG2)/2)/EC50 bacterial strain
Protocol: as §2

[6] = system: B. subtilis (NBRC/ATCC #111470); assay: Antibacterial resazurin assay, laboratory strain; conditions: for pEC50 / EC90: Bacillus subtilis, ATCC111470, 18 h; for pEC50: read-out: Bsu EC50; for EC90: read-out: Bsu EC90; for Selectivity index B. subtilis: mean of MCF-7 and HepG2 EC50 over bacterial EC50, laboratory strain
[7] = system: E. coli MG1655 (CGSC #6300); assay: Antibacterial resazurin assay, laboratory strain; conditions: for pEC50 / EC90: Escherichia coli, MG1655, 18 h; for pEC50: read-out: Eco EC50; for EC90: read-out: Eco EC90; for Selectivity index E. coli: mean of MCF-7 and HepG2 EC50 over bacterial EC50, laboratory strain
[8] = system: P. carotovorum (NBRC/ATCC #3380); assay: Antibacterial resazurin assay, laboratory strain; conditions: for EC90: read-out: Pcar EC90; for Selectivity index P. carotovorum: mean of MCF-7 and HepG2 EC50 over bacterial EC50, laboratory strain
[9] = system: P. caledonica (NBRC/ATCC #102488); assay: Antibacterial resazurin assay, laboratory strain; conditions: for pEC50 / EC90: Paraburkholderia caledonica, ATCC102488, 18 h; for pEC50: read-out: Pcal EC50; for EC90: read-out: Pcal EC90; for Selectivity index P. caledonica: mean of MCF-7 and HepG2 EC50 over bacterial EC50, laboratory strain
[10] = Pectobacterium carotovorum, ATCC3380, 18 h, read-out: Pcar EC50, laboratory strain, 18 h, 37 °C, AlamarBlue
[11] = Pectobacterium carotovorum, ATCC3380, 18 h

Row | SMILES | EC50 at 24 h [1] [µM] | EC50 at 24 h [2] [µM] | pEC50 [3] | EC90 [3] [µM] | Selectivity index K. pneumoniae (CCUG #58547) [3] | pEC50 [4] | EC90 [4] [µM] | pEC50 [5] | EC90 [5] [µM] | pEC50 [6] | EC90 [6] [µM] | pEC50 [7] | EC90 [7] [µM] | Selectivity index E. coli [7] | pEC50 [8, 10] | EC90 [8, 11] [µM] | Selectivity index P. carotovorum [8] | pEC50 [9] | EC90 [9] [µM] | Selectivity index P. caledonica [9] | other results
1 | N=C(N)Nc1ccc(-c2ccc(-c3ccc(NC(=N)N)cc3Cl)o2)c(Cl)c1 [Compound 1, 2,5-Bis(2-chloro-4-guanidinophenyl)furan] | 34.4 | 43.4 | 5.28 | 8 | 7.5 | 5.32 | 6.7 | 5.28 | 7.4 | 4.60 | 136 | 4.19 | 148 | 0.6 | 4.17 | 115 | 0.6 | 4.69 | 136 | 1.9 | Selectivity index P. aeruginosa (CCUG #17619) [4]: 8.1; Selectivity index P. aeruginosa (CCUG #59347) [5]: 7.3; Selectivity index B. subtilis [6]: 1.5
2 | N=C(N)Nc1ccc(-c2ccc(C(=O)N3CCc4cc(NC(=N)N)ccc43)o2)cc1 [Compound 17, (5-(4-guanidinophenyl)furan-2-yl)(5-guanidinoindolin-1-yl)methanone] | 149 | 239 | < 3.70 | > 200 |  | 4.64 | 27 | 4.77 | 23.9 | < 3.52 | > 300 | 5.77 | 4.3 | 114.3 | 3.89 | 142 | 1.5 | 4.14 | > 300 | 2.7 | Selectivity index P. aeruginosa (CCUG #17619) [4]: 8.5; Selectivity index P. aeruginosa (CCUG #59347) [5]: 11.4
3 | N=C(N)Nc1ccc(-c2ccc(-c3ccc(NC(=N)N)cc3)o2)cc1 [Compound 3] | 64.5 | 185 | 5.25 | 8.3 | 22.1 | 5.05 | 11.1 | 5.28 | 8.1 | 4.95 | 22.5 | 4.09 | 174 | 1.5 | 4.46 | 79 | 3.6 | 5.35 | 18.9 | 27.4 | Selectivity index P. aeruginosa (CCUG #17619) [4]: 13.8; Selectivity index P. aeruginosa (CCUG #59347) [5]: 24.1; Selectivity index B. subtilis [6]: 11.1
4 | Cc1cc(NC(=N)N)ccc1-c1ccc(-c2ccc(NC(=N)N)cc2C)o1 [Compound 4, 2,5-Bis(4-guanidino-2-methylphenyl)furan] | > 100 | 51.3 | 4.77 | 22.4 | 4.4 | 4.75 | 25.4 | 4.18 | 77 | 5.21 | 8.5 | 4.31 | 80.8 | 1.5 | ~4.55 | 37.3 | 2.6 | 5.09 | 51.9 | 9.2 | Selectivity index P. aeruginosa (CCUG #17619) [4]: 4.2; Selectivity index P. aeruginosa (CCUG #59347) [5]: 1.1; Selectivity index B. subtilis [6]: 12.2; pEC50 ([8]; read-out: Pcar EC50, laboratory strain, 18 h, 37 °C, AlamarBlue): 4.54
5 | N=C(N)Nc1ccc(-c2ccc(C(=O)N3CCc4cc(NC(=N)N)ccc43)o2)c(Cl)c1 [Compound 16, (5-(2-chloro-4-guanidinophenyl)furan-2-yl)(5-guanidinoindolin-1-yl)methanone] | 177 | 241 | 4.89 | 15.3 | 16.2 | 4.77 | 22.9 | 4.74 | 24 | < 3.52 | > 300 | 4.88 | 19 | 16.0 | 4.15 | 80.7 | 2.9 | 4.29 | 176 | 4.1 | Selectivity index P. aeruginosa (CCUG #17619) [4]: 12.2; Selectivity index P. aeruginosa (CCUG #59347) [5]: 11.5
6 | N=C(N)NCc1ccc(-c2ccc(-c3ccc(CNC(=N)N)cc3)o2)cc1 [Compound 10, 2,5-Bis(4-guanidinomethylphenyl)furan] | 48.6 | 137 | < 3.70 | > 200 |  | < 3.70 | > 200 | < 3.70 | > 200 | < 3.52 | > 300 | 4.14 | 108 | 1.3 | 4.36 | 61.2 | 2.1 | 5.54 | 5 | 31.8 | 
7 | COC(=O)c1cc(NC(=N)N)ccc1-c1ccc(-c2ccc(NC(=N)N)cc2C(=O)OC)o1 [Compound 8, 2,5-Bis(4-guanidino-2-(methylcarboxy)phenyl)furan] | 81.6 | 405 | 4.99 | 13.3 | 23.6 | < 3.70 | > 200 | < 3.70 | > 200 | 4.65 | 43.6 | 4.02 | 129 | 2.5 | 3.85 | 158 | 1.7 | < 3.52 | > 300 |  | Selectivity index B. subtilis [6]: 10.8
